The test system of test [1] is HT-29 cell line. Nature of the test: SRB assay, antiproliferative activity against HT-29. Format: cell-based, human. As to conditions: Homo sapiens; 2 h incubation, SRB assay, HT-29. The protocol: (§1) The human adenocarcinoma cell line, HT-29 (ATCC HTB-38), was cultured in αMEM medium (IITD PAN) supplemented with 10% fetal bovine serum, FBS (Sigma-Aldrich, Taufkirchen, Germany), 100 U/mL penicillin, 100 µg/mL streptomycin antibiotic solution (Sigma-Aldrich, Taufkirchen, Germany), and 2 mM glutamine solution (Sigma-Aldrich, Taufkirchen, Germany). Cells from less than 20 passages were used for the study. In turn, preadipocytes from mouse embryos with the morphology of fibroblast cells, line 3T3-L1 (ATCC CL-173), were cultured in DMEM high-glucose medium (Life Technologies Corporation, Carlsbad, CA, USA) with the same supplements as above. Cells from less than 14 passages were used for the study. Both tested cell lines were grown at 37 °C in 5% CO2.
(§2) The effect of O-alkyl derivatives of naringenin and their oximes on eukaryotic cells was checked using a slightly modified SRB test described earlier. Firstly, HT-29 (1 × 10^5 cells/mL) and 3T3-L1 (5 × 10^4 cells/mL) cell lines were incubated in adherent microtiter plates under the conditions described above. The cells were then treated for 2 h with the tested compounds 1a–10a and 1b–10b at concentrations of 1, 5, 10, 25, 50, 75, and 100 µg/mL each. After this time, the medium was removed and replaced with one containing 50% (wt/vol) trichloroacetic acid (TCA; Sigma-Aldrich, Taufkirchen, Germany). Following 1 h of incubation at 4 °C, the plate was rinsed with water, and then an acidic solution of 0.4% sulforhodamine B (SRB) (Sigma-Aldrich, Taufkirchen, Germany), was added to the dried wells and incubated in the dark for half an hour. At the end of this time, the SRB solution was replaced by 1% (vol/vol) acetic acid, and the stained protein precipitate was dissolved in 10 mM Tris base solution (pH 10.5). Absorbance was measured at 560 nm in a plate reader (GloMax Discover Microplate Reader, Promega).
(§3) The cytotoxic effect of O-alkyl derivatives of naringenin and their oximes on eukaryotic cells was expressed as the concentration of the tested compounds at which 50% growth inhibition of the tested cell lines was observed. Values were presented in the form of the survival index (SI)–IC50. All determinations were repeated in three independent experiments, each performed in three technical replicates. Moreover, the effect of DMSO (Sigma-Aldrich, Taufkirchen, Germany), the solvent present in all the initial solutions of the tested compounds, on the growth of the cell lines used in the study was also verified.

For test [2], the system named is 3T3-L1 cell line. Kind of test: SRB assay, antiproliferative activity against 3T3-L1. Format: cell-based, mouse. To be noted: Mus musculus; 2 h incubation, SRB assay, 3T3-L1. The method, then:
as §1, §2, §3

In test [3] the test system is cell membranes. Set-up: method as in PMID 10839220. To be noted: cited from earlier work.
Test [4] has as its system Escherichia coli K12 (ATCC 10798). Kind of test: Adhesion assay, static conditions: E. coli to 3T3-L1 cell line. It is filed as cell-based. The method, then: The study used two reference strains, Escherichia coli K12 (ATCC 10798) and Enterococcus faecalis (ATCC 29212), obtained from the American Type Culture Collection. Both strains were stored in trypticase soy broth (TSB; OXOID, Basingstoke, UK) with the addition of 30% glycerol at −70 °C in the museum resources of the Department of Microbiology at the Wroclaw Medical University.
For studies determining the interaction of bacteria with eukaryotic cells, suspensions of the tested strains were prepared in Luria broth (LB, Becton, Dickinson and Company, USA) medium with a bacterial density of 6 × 10^8 CFU/mL.
The adhesion ability of the tested bacterial strains to HT-29 and 3T3-L1 cell lines was determined by an in vitro adhesion assay as described previously. Eukaryotic cells were infected with prokaryotic cells in the presence of the examined compounds in pre-selected concentrations at an MOI (multiplicity of infection) ratio of 50. Cells were exposed to the tested strains and compounds for 2 h. After this time, unbound bacteria were removed by washing with PBS (Life Technologies Corporation, Carlsbad, CA, USA). The lysates acquired by cell lysis (0.5% Triton X-100 in LB): 90 min, 37 °C, 5% CO2 atmosphere, were then seeded onto TSA and MC media for E. faecalis and E. coli, respectively. The assays were performed in at least three independent experiments (cells from subsequent passages), each in triplicate. A control without tested compounds was set for each strain.

The test system is the same in test [5]. Kind of test: Bioflux microfluidic adhesion: E. coli to 3T3-L1 cell line. To be noted: 50 µg/mL, control 0.37 ± 0.13. It is filed as cell-based. The protocol:
(§4) Determination of the impact of a dynamic medium flow on the adhesive capacity of bacteria was performed using the Bioflux 1000Z (Fluxion, San Francisco, CA, USA) with a coupled microscope environmental chamber (Pecton Incubator XL S1, Carl Zeiss, Jena, Germany), enabling the maintenance of 37 °C and microaerophilic conditions. At the very beginning, all channels of dedicated microfluidic plates (Fluxion, San Francisco, CA, USA) were flushed with 100 µL of αMEM or DMEM high-glucose medium with supplements (further named “cell line medium”; for details of the supplementation see “Cell culture procedure”) applying an intensive flow of 10 dyne/cm^2 for 10 s. After unblocking the lumen of the channels, the inlet and outlet wells were emptied, and 20 µL of 100 µg/mL fibronectin solution (Sigma-Aldrich, Taufkirchen, Germany) was added to each inlet channel. The medium was turned in the outlet direction at a flow rate of 1 dyne/cm^2 for 1 min. After this step, the plate was left for a 1 h incubation period to allow fibronectin to be absorbed on the surface of the microcapillaries. […] After completing this stage, photographs of the microcapillaries containing the tested biological materials were taken using an inverted fluorescence microscope (GabH, Jena, Germany) and the Bioflux Montage software (Fluxion, San Francisco, CA, USA). […]

Test [6] has the same test system. Kind of test: Bioflux microfluidic adhesion: E. coli to HT-29 cell line. As to conditions: 50 µg/mL, control 0.65 ± 0.07. It is filed as cell-based. The method, then:
as §4

Test [7] deals with Enterococcus faecalis (ATCC 29212). Kind of test: Bioflux microfluidic adhesion: E. faecalis to 3T3-L1 cell line. To be noted: 50 µg/mL, control 0.29 ± 0.11. It is filed as cell-based. The protocol:
as §4

The test system is the same in test [8]. Nature of the test: Bioflux microfluidic adhesion: E. faecalis to HT-29 cell line. It is filed as cell-based. To be noted: 50 µg/mL, control 1.55 ± 0.15. The method, then: as §4

As for `O=C1C[C@@H](c2ccc(O)cc2)Oc2cc(O)cc(O)c21` [NG, naringenin], the IC50 in test [1] and in test [2] was over 100 mg/L each time. In addition, the “concentration at which the membrane-solidifying effect is revealed” value in test [3] is listed as at least 2.5 µg/mL.
For the molecule `CCCCCCCCCOc1ccc([C@@H]2CC(=NO)c3c(O)cc(OCCCCCCCCC)cc3O2)cc1` [Compound 8b, 7,4’-di-O-nonylnaringenin oxime], the IC50 in test [1] and in test [2] was over 100 mg/L each time. Also, the “effect on adhesion of E. coli to 3T3-L1 (in words)” value in test [4] is on record as “strongly enhance”. The “BB/EC ratio (area of bacterial biomass adhered to the surface of the eukaryotic cells)” value in test [5] stood at 0.6 ± 0.12. The BB/EC ratio in test [6] was determined as 1.03 ± 0.06; in test [7], 0.28 ± 0.15; in test [8], 1.36 ± 0.08.

These data come from publication PMC10294875, “Ether Derivatives of Naringenin and Their Oximes as Factors Modulating Bacterial Adhesion” (Antibiotics, 2023).
